Measured values: patent US20210300926A1, “NEW BETA-LACTAMASE INHIBITORS TARGETING GRAM NEGATIVE BACTERIA” (priority 2017, published 2021)
Read-outs that look alike come from different tables or passages of the source.

Key:
[1] = test system: E. coli Top10 producing AmpCEcl; assay: MIC determination by microdilution, E. coli Top10 producing AmpCEcl; type: cell-based; settings: Escherichia coli, read-out: MIC of β-lactam, inhibitor None
Source text: (§1) Plasmid and strain construction. For antibiotic susceptibility testing, the R-lactamase genes were cloned into the vector pTRC-99k, which is a derivative of pTRC99a (Pharmacia) obtained by replacing the β-lactamase resistance gene by a kanamycin resistance gene (Km, lacl, pTRC promoter, oriVcolEl; D. Mengin-Lecreulx, unpublished). Recombinant plasmids were introduced by electrotransformation into Escherichia coli Top10. For β-lactamase production, fragments of the β-lactamase genes encoding soluble enzymes, i.e. devoid of the signal peptides, were cloned into the vector pET-TEV generating translational fusions with a vector-encoded N-terminal 6×His Tag followed by a TEV cleavage site ([…]) (1).
(§2) MIC determination. MICs of β-lactams were determined by the microdilution method in MH broth according to Clinical and Laboratory Standards Institute (CLSI) recommendations (12). Diazabicyclooctane were used at a fixed concentration of 15 μM (4 μg/ml for avibactam). Clavulanate was tested at 4 μg/ml. IPTG (500 μM) was added to the microdilution plates to induce production of the -lactamase. The precultures were grown in BHI broth containing IPTG (500 μM) and kanamycin (50 μg/ml) for plasmid maintenance. Reported MICs are the medians from five biological repeats obtained in two independent experiments.

[2] = test system: E. coli Top10; assay: MIC determination by microdilution, E. coli Top10 without β-lactamase (None); type: cell-based; settings: Escherichia coli, E. coli Top10, β-lactamase None, read-out: MIC of β-lactam, inhibitor None
Source text: as §1, §2

[3] = test system: E. coli Top10 producing OXA-48; assay: MIC determination by microdilution, E. coli Top10 producing OXA-48; type: cell-based; settings: Escherichia coli, read-out: MIC of β-lactam, inhibitor None
Source text: as §1, §2

[4] = molecular target: T1, AmpCEclo (Enterobacter cloacae, UniProt P05364); type: biochemical; settings: AmpCEclo; 20° C., nitrocefin 100 μM, MES pH 6.4
T1 construct: fragments of the β-lactamase genes encoding soluble enzymes, i.e. devoid of the signal peptides; 6xHis tag followed by TEV cleavage site ([…]) (N); made in house; host or cells: E. coli BL21 (DE3)
T1 sequence (P05364 21-381): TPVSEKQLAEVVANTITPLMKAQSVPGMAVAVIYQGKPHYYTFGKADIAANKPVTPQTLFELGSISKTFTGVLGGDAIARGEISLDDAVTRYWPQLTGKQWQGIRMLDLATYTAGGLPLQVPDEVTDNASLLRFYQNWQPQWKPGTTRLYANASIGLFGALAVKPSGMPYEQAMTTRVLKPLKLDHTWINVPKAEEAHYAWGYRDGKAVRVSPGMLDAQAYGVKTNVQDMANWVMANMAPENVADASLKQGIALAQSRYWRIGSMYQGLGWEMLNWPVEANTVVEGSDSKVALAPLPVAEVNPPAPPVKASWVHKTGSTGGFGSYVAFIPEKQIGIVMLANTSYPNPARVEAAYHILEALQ
Description: (§3) Production and purification of β-lactamases. E. coli BL21 (DE3) harboring recombinant plasmids were grown in brain heart infusion (BHI) broth supplemented with kanamycin (50 μg/ml) at 37° C. under vigorous shaking until the optical density at 600 nm (OD600) reached 0.8. Isopropyl β-D-1-thiogalactopyranoside IPTG (0.5 mM) was added and incubation was continued at 16° C. for 18 h. Bacteria were harvested by centrifugation, re-suspended in 25 mM Tris-HCl (pH 7.5) containing 300 mM NaCl (buffer A) and lysed by sonication. The enzymes were purified from clarified lysates by affinity chromatography (NiNTA agarose, Sigma-Aldrich) and size exclusion chromatography in buffer A (Superdex 200 HL26/60, Amersham Pharmacia Biotech). Protein concentration was determined by the Biorad protein assay using bovine serum albumin as a standard.
(§4) Determination of kinetic parameters. […] Briefly, the initial velocity (vi) was determined by spectrophotometry for various concentrations of β-lactams [S] and a fixed concentration of β-lactamase [E]. The values of vi were plotted as a function of [S]. The kinetic constants Km and kcat were determined by fitting the equation […] to the resulting curve. The molecular extinction coefficient was 14,600 M^−1 cm^−1 at 486 nm for nitrocefin. […] Kinetics constants were deduced from a minimum of 6 progress curves obtained in a minimum of two independent experiments.

[5] = test system: E. coli Top10 producing CTX-M15; assay: MIC determination by microdilution, E. coli Top10 producing CTX-M15; type: cell-based, Escherichia coli; settings: E. coli Top10 producing CTX-M-15; summary of Table 1
Source text: as §1, §2

[6] = molecular target: T2, TEM-1 (Escherichia coli, UniProt P62593); assay: Kinetic parameters of β-lactamase carbamoylation/de-carbamoylation (nitrocefin), TEM-1; type: biochemical; settings: 20° C., nitrocefin 100 μM, MES pH 6.4
T2 construct: fragments of the β-lactamase genes encoding soluble enzymes, i.e. devoid of the signal peptides; made in house; host or cells: E. coli BL21 (DE3)
T2 sequence (P62593 24-286 limits assumed): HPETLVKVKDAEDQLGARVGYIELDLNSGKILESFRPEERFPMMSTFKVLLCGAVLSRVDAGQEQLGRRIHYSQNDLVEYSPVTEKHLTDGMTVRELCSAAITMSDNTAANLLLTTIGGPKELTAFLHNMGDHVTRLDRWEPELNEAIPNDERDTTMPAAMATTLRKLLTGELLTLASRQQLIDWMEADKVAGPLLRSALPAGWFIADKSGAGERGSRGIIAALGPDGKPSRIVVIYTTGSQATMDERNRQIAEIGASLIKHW
Source text: as §1, §3, §4

[7] = molecular target: T3, KPC-2 (Klebsiella pneumoniae, UniProt Q9F663); assay: Kinetic parameters of β-lactamase carbamoylation/de-carbamoylation (nitrocefin), KPC-2; type: biochemical; settings: KPC-2; 20° C., nitrocefin 100 μM, MES pH 6.4
T3 construct: fragments of the β-lactamase genes encoding soluble enzymes, i.e. devoid of the signal peptides; 6xHis tag followed by TEV cleavage site ([…]) (N); made in house; host or cells: E. coli BL21 (DE3)
T3 sequence (Q9F663 25-293 limits assumed): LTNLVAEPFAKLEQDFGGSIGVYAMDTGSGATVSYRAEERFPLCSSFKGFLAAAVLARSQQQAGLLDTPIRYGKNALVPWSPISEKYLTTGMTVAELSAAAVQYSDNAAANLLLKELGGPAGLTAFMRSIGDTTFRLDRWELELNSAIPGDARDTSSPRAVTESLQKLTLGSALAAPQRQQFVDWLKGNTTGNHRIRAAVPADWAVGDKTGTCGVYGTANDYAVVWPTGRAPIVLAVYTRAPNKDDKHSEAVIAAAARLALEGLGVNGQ
Source text: as §1, §3, §4

[8] = molecular target: T4, CTX-M-15 (Escherichia coli, UniProt Q9EXV5); assay: Kinetic parameters of β-lactamase carbamoylation/de-carbamoylation (nitrocefin), CTX-M-15; type: biochemical; settings: CTX-M-15; 20° C., nitrocefin 100 μM, MES pH 6.4
T4 construct: fragments of the β-lactamase genes encoding soluble enzymes, i.e. devoid of the signal peptides; made in house; host or cells: E. coli BL21 (DE3)
T4 sequence (Q9EXV5 entry or part of it): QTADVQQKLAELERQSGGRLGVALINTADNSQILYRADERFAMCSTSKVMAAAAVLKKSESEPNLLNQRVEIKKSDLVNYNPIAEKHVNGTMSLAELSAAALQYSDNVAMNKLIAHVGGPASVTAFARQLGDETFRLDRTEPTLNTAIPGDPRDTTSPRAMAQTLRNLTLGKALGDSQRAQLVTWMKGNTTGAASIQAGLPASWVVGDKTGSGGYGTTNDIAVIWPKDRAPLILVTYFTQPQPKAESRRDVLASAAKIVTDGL
Source text: as §1, §3, §4

[9] = test system: E. coli Top10 producing KPC-2; type: cell-based, Escherichia coli; settings: summary of Table 1
[10] = test system: E. coli Top10 producing TEM-1; assay: MIC determination by microdilution, E. coli Top10 producing TEM-1; type: cell-based; settings: Escherichia coli, read-out: MIC of β-lactam, inhibitor None
Source text: as §1, §2

CO/N=C(\C(=O)N[C@@H]1C(=O)N2C(C(=O)O)=C(COC(C)=O)CS[C@H]12)c1csc(N)n1 [Cefotaxime]
MIC [1]: 128 µg/mL
MIC ([2]; Cefotaxime alone): 0.12 µg/mL

C[C@@H](O)[C@H]1C(=O)N2C(C(=O)O)=C(S[C@@H]3CN[C@H](C(=O)Nc4cccc(C(=O)O)c4)C3)[C@H](C)[C@H]12 [Ertapenem]
MIC [3]: 16 µg/mL
MIC ([2]; Ertapenem alone): < 0.03 µg/mL

COCc1cn(C[C@@H]2CC[C@@H]3CN2C(=O)N3OS(=O)(=O)[O-])nn1.[Na+] [Compound 1a.i13]
Carbamoylation efficacy of β-lactamases by diazabicyclooctanes [4]: (1.5 ± 0.5) × 10^1 M^−1 s^−1
De-carbamoylation rate constant k−2 for β-lactamase-diazabicyclooctane adducts [4]: (1.3 ± 0.6) × 10^−3 s−1
reduction in the MICs of β-lactams (in words) [5]: Minor reduction
Carbamoylation efficacy of β-lactamases by diazabicyclooctanes [6]: (8.3 ± 0.5) × 10^2 M^−1 s^−1
De-carbamoylation rate constant k−2 for β-lactamase-diazabicyclooctane adducts [6]: (1.6 ± 0.5) × 10^−3 s−1
Carbamoylation efficacy of β-lactamases by diazabicyclooctanes [7]: (1.8 ± 0.2) × 10^1 M^−1 s^−1
De-carbamoylation rate constant k−2 for β-lactamase-diazabicyclooctane adducts [7]: (1.2 ± 0.1) × 10^−3 s−1
Carbamoylation efficacy of β-lactamases by diazabicyclooctanes [8]: (1.2 ± 0.4) × 10^2 M^−1 s^−1
De-carbamoylation rate constant k−2 for β-lactamase-diazabicyclooctane adducts [8]: (1.3 ± 1.3) × 10^−3 s−1
reduction in the MICs of β-lactams (in words) [9]: Minor reduction

Cn1nnnc1SCC1=C(C(=O)O)N2C(=O)[C@@H](NC(=O)[C@H](O)c3ccccc3)[C@H]2SC1 [Cefamandole]
MIC [10]: > 2050 µg/mL
MIC ([2]; Cefamandole alone): 2 µg/mL
